Assay results as given in publication PMC11514837 (Toxicological Sciences, 2024).
Where two headings read alike, the source gives them in different places.

Assays:
cyp1a^osu4 zebrafish = assay type: in vivo; details: TCDD, cyp1a^osu4 fish, 1 h exposure at 6 to 8 hpf
cyp1a^osu5 zebrafish = assay type: in vivo; details: TCDD, cyp1a^osu5 fish; unit not given
Cyp1b1^wh4 zebrafish = assay type: in vivo; details: TCDD
zebrafish embryos [1] = assay: Zebrafish developmental toxicity screening, wild-type fish; assay type: in vivo, zebrafish (Danio rerio); details: for EC80: nominal concentration causing morphologic malformations in 80% of WT zebrafish; for concentration up to which not toxic in zebrafish: data not shown
human AHR [2] = biological target: T1, human AHR (Homo sapiens, UniProt P35869); details: exposures up to 30 μM
T1 sequence (P35869 11-848): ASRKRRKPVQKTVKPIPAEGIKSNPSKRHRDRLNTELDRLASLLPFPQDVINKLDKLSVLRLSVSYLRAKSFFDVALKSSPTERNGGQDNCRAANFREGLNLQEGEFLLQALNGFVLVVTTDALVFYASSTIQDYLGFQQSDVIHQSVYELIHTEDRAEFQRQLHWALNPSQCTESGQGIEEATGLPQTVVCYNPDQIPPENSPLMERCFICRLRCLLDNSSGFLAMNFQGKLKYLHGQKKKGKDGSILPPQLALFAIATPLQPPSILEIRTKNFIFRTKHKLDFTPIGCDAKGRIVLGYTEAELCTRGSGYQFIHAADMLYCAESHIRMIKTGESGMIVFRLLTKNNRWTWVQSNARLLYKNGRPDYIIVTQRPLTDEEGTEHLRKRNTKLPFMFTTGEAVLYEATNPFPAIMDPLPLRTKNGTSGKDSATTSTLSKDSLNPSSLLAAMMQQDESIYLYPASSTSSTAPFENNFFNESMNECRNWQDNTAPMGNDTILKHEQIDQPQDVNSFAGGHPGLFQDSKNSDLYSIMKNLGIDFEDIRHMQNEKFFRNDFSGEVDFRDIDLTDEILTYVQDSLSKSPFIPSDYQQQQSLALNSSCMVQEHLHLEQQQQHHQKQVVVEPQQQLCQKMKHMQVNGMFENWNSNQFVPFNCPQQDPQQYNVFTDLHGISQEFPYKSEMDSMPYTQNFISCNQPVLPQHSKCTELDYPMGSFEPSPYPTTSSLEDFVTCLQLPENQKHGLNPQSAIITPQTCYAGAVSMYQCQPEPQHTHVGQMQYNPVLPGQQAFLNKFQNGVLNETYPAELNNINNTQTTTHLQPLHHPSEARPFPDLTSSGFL

zebrafish Ahr2 = biological target: T2, zebrafish Ahr2 (Danio rerio, UniProt Q9YGV3); assay type: cell-based; details: exposures up to 30 μM
T2 sequence (Q9YGV3 1-1027): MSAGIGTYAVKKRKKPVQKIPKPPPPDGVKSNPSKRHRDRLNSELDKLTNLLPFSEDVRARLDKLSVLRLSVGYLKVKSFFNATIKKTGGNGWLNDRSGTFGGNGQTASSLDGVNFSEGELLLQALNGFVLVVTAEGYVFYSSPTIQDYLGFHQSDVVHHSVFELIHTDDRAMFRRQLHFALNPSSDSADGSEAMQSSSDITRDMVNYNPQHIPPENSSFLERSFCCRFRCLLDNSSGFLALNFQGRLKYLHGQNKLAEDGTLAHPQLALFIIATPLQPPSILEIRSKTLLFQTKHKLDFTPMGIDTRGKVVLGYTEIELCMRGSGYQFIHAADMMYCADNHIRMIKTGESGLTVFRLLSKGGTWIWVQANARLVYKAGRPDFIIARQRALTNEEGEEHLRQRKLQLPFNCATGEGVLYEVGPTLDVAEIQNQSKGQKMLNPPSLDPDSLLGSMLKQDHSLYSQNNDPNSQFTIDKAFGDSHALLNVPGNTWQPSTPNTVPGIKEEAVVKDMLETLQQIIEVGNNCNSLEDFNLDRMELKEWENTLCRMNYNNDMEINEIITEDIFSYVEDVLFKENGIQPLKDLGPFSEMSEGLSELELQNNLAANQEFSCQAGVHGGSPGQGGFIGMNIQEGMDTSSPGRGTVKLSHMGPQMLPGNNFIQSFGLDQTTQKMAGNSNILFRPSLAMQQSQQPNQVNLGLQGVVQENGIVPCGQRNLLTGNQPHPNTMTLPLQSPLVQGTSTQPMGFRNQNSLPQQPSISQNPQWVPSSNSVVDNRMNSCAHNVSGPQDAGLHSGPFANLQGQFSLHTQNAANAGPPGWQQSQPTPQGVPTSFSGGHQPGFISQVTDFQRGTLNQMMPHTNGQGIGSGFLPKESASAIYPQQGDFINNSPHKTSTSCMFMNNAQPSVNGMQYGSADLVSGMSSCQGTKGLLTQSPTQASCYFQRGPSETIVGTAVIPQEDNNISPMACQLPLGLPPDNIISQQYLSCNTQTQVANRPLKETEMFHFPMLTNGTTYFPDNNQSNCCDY

[3] = system: cyp1a^cms-gfp zebrafish (EGFP under cyp1a promotor)
Ahr2 = details: ref Billiard et al. 2002; cited from earlier work
[4] = Larval metabolite analysis by LC-IM-MS; details: zebrafish exposed to 26 µM retene
human AHR [5] = biological target: T1, human AHR
[6] = system: Ahr2 knockout (ahr2^hu3335) fish; details: ref Scott et al. 2011; Wilson et al. 2022; cited from earlier work
[7] = Retene body burden in zebrafish tissue; assay type: in vivo
zebrafish embryos [8] = assay: Window of susceptibility developmental toxicity exposures; assay type: in vivo

Compound: Clc1cc2c(cc1Cl)Oc1cc(Cl)c(Cl)cc1O2 [TCDD, 2,3,7,8-Tetrachlorodibenzo-p-dioxin]
- BMC50 (cyp1a^osu4 zebrafish): 0.41 ± 0.07 nM
- BMC (cyp1a^osu5 zebrafish): 0.56 ± 0.13
- change in toxicity versus 5D fish (Cyp1b1^wh4 zebrafish): no change in toxicity

Compound: c1ccc2c3c(ccc2c1)-c1cccc2cccc-3c12 [Benzo[j]fluoranthene]
- EC80 (zebrafish embryos [1]): could not be determined
- AHR activation in human HuH-7 luciferase reporter cells (human AHR [2]): direct AHR activators
- Ahr2 activation in zebrafish ZF-4 luciferase reporter cells (zebrafish Ahr2): direct AHR activators

Compound: c1ccc2cc3c(cc2c1)-c1cccc2cccc-3c12 [Benzo[k]fluoranthene, Benzo(k)fluoranthene]
- AHR activation in human HuH-7 luciferase reporter cells (human AHR [2]): direct AHR activators
- Ahr2 activation in zebrafish ZF-4 luciferase reporter cells (zebrafish Ahr2): direct AHR activators
- EGFP expression at 23 hpf / early hours ([3]; cyp1a^cms-gfp fish, retene 26 μM, benzo[k]fluoranthene 8.9 μM): strong widespread EGFP expression

Compound: O=c1c2ccccc2oc2ccccc12 [Xanthone]
- EC80 (zebrafish embryos [1]): 52 µM

Compound: c1ccc2c(c1)-c1cccc3c1c-2cc1ccccc13 [Benzo[b]fluoranthene]
- concentration up to which not toxic in zebrafish (zebrafish embryos [1]): > 100 µM
- AHR activation in human HuH-7 luciferase reporter cells (human AHR [2]): direct AHR activators
- Ahr2 activation in zebrafish ZF-4 luciferase reporter cells (zebrafish Ahr2): direct AHR activators

Compound: O=C1c2ccccc2C(=O)c2c1ccc1ccccc21 [Benzanthraquinone]
- AHR activation in human HuH-7 luciferase reporter cells (human AHR [2]): direct AHR activators
- Ahr2 activation in zebrafish ZF-4 luciferase reporter cells (zebrafish Ahr2): direct AHR activators

Compound: c1ccc2c(c1)cc1ccc3cccc4ccc2c1c34 [Benzo[a]pyrene]
- AHR activation in human HuH-7 luciferase reporter cells (human AHR [2]): activator
- Ahr2 activation in zebrafish ZF-4 luciferase reporter cells (zebrafish Ahr2): activator

Compound: Cc1cccc2c1ccc1cc(C(C)C)ccc12 [Retene, 1-methyl-7-isopropylphenanthrene]
- times less strong at binding Ahr2 than 1-methylphenanthrene (Ahr2): 3 ×
- times less strong at binding Ahr2 than benzo[b]fluoranthene (Ahr2): 73 ×
- AHR activation in human HuH-7 luciferase reporter cells (human AHR [2]): minimal reporter activity
- retene metabolites in tissue extracts at 12 and 24 hpf [4]: No retene metabolites were detected
- Ahr2 activation in zebrafish ZF-4 luciferase reporter cells (zebrafish Ahr2): no significant activation
- Ahr2 activation in zebrafish ZF-4 luciferase reporter cells (zebrafish Ahr2; listed as retene): do not respond
- effect of supplementation with human liver s9 on reporter activity (human AHR [5]): did not lead to an increase in reporter activity
- EGFP expression at 23 hpf / early hours ([3]; zebrafish, in vivo): control-like EGFP expression
- Ahr2 dependence of toxicity in developing zebrafish [6]: Ahr2 dependent toxicity
- increase in body burden from 12 to 24 hpf ([7]; 30 μM retene from 6 hpf): greater than 3 fold
- tissue burden at 48 hpf ([7]; 30 μM retene from 6 hpf): decreased to near-baseline
- 24 hpf body burden ([7]; static exposure to 30 μM retene from 6 hpf): 31 ng/fish
- BMC50 (zebrafish embryos [8]; exposure window 6 to 48 hpf, screened at 120 hpf): 52 ± 4 µM
- developmental toxicity response (zebrafish embryos [8]; exposure window 48 to 120 hpf): little response

Compound: Cc1cccc2c1ccc1ccccc12 [1-methylphenathrene, 1-methylphenanthrene]
- concentration up to which not toxic in zebrafish (zebrafish embryos [1]): > 100 µM
